# Experimental data taken from US6242199A, “Assays for growth hormone secretagogue receptors” (Merck & Co., Inc., priority 1998, dated 2001).
# Tests used:
# swine Type I GHSR = assay: Aequorin bioluminescence assay in Xenopus oocytes, swine Type I GHSR; format: cell-based; conditions: swine Type I cRNA in oocytes; tested from 1 μM down
# Experimental: (§1) Xenopus laevis oocytes were isolated and injected using standard methods previously described by Arena, et. al. 1991, Mol. Pharmacol. 40, 368-374, which is hereby incorporated by reference. Adult female Xenopus Laevis frogs (purchased from Xenopus One, Ann Arbor, Mich.) were anesthetized with 0.17% tricaine methanesulfonate and the ovaries were surgically removed and placed in a 60 mm culture dish (Falcon) containing OR-2 medium without calcium (82.5 mM NaCl, 2 mM KCl, 2.5 mM sodium pyruvate, 1 mM MgCl2, 100 μ/ml penicillin, 1 mg/ml streptomycin, 5 mM HEPES, pH=7.5; ND-96 from Specialty Media, NJ). Ovarian lobes were broken open, rinsed several times, and oocytes were released from their sacs by collagenase A digestion (Boehringer-Mannheim; 0.2% for 2-3 hours at 18° C.) in calcium-free OR-2. […]
# (§2) The ABA requires injection of library pool cRNA (25 ng/egg for pool sizes of 500 to 10,000) with aequorin cRNA (2 ng/egg) supplemented with the G-protein alpha subunit Gα11 (2 ng/egg). […] Polymerase chain reaction (PCR) was utilized to generate a DNA fragment corresponding to the open reading frame (ORF) of the aequorin cDNA with an optimized Kosak translational initiation sequence (Inouye, S. et. al., 1985, Proc. Natl. Acad. Sci. USA 82:3154-3158). […]
# [1] = tested on: swine growth hormone secretagogue receptor (GHSR); assay: Aequorin bioluminescence assay in Xenopus oocytes injected with swine pituitary mRNA / cDNA library pool or clone cRNA; format: cell-based; conditions: 1 μM
# Experimental: as §1, §2
# [2] = target: T1, growth hormone secretagogue receptor (GHSR), porcine anterior pituitary membranes (Sus scrofa, UniProt Q95254); assay: [35S]-Compound A radioreceptor binding, porcine anterior pituitary membranes
# T1 construct: Frozen anterior pituitary glands from male swine (50-80 Kg); from tissue; host or cells: anterior pituitary glands of male swine (50-80 kg), crude membranes
# Experimental: Frozen anterior pituitary glands from male swine (50-80 Kg) or from the Wistar male rats (150-200 g) were homogenized in a tissue homogenizer in ice-cold buffer (50 mM Tris-HCl buffer, pH 7.4, 5 mM MgCl2, 2.5 mM EDTA, 0.1% bovine serum albumin and 30 μg/ml bacitracin). The homogenates were centrifuged for 5 min at 1,400×g and the resulting supernatants were then centrifuged at 34,000×g for 20 min. The pellets were resuspended in same buffer to a 1,500 μg protein/ml and stored at -80° C. Protein was determined by a Bio-Rad method (Bio-Rad Laboratories, Richmond, Calif.).
# Aliquots were incubated at 20° C. for 60 min and bound radioligand was separated from free by filtration through GF/C filters pretreated with 0.5% of polyethylenimine in a Brandel cell harvester. […] Assays were carried out in triplicate and experiments repeated at least three times.
# swine Type II GHSR = assay: Aequorin bioluminescence assay in Xenopus oocytes, swine Type II GHSR; format: cell-based; conditions: swine Type II-derived cRNA truncated in TM-6
# Experimental: as §1, §2
# human Type I GHSR = assay: Aequorin bioluminescence assay in Xenopus oocytes, human Type I GHSR; format: cell-based; conditions: human Type I cRNA in oocytes; tested from 1 μM down
# Experimental: as §1, §2
# T1 sequence (Q95254 whole entry): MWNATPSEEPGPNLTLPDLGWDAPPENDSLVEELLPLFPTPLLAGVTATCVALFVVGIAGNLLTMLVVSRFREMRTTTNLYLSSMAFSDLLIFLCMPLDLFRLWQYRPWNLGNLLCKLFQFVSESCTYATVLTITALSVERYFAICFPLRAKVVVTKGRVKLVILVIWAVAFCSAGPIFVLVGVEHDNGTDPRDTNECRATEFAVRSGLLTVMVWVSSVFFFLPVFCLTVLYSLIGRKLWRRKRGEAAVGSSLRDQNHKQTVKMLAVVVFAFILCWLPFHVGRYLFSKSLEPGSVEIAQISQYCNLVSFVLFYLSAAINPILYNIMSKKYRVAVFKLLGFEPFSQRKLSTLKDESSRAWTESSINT
smiles,measurement,setting,value
"CC(C)(N)C(=O)N[C@H](COCc1ccccc1)C(=O)N1CCC2(CC1)CN(S(C)(=O)=O)c1ccccc12 [Compound A, (N-[1(R)-[1,2-dihydro-1-methanesulfonlylspiro[3H-indole-3,4'-piperidin]-1'-yl)carbonyl]-2-(phenylmethyloxy)-ethyl]-2-amino-2-methyl-propanamide]",lowest Compound A concentration giving a response,swine Type I GHSR,0.1 nM
same,bioluminescence response (in words),[1]; clones 7-3 and 28-18,positive bioluminescence response
same,bioluminescent signal (in words),[1]; pool P541,positive bioluminescent signal
same,specific binding of [35S]-Compound A detected in the absence of Mg2+,"[2]; absence of Mg2+, in comparison with control (10 mM Mg2+)",15-25%
same,Ki,"[2]; competition with [35S]-Compound A, read-out: inhibition constant, Ki",0.24 nM
same,concentration (Bmax),"[2]; porcine anterior pituitary membranes, Scatchard analysis, n=4",6.3±0.6 fmol/mg of protein
same,Kd,"[2]; porcine anterior pituitary membranes, Scatchard analysis, n=4, read-out: apparent dissociation constant (KD)",0.161 ± 0.011 nM
same,specific binding of total binding,"[2]; porcine membranes, nonspecific in 500 nM unlabeled Compound A",65-85%
same,displacement of / competition with [35S]-Compound A binding (in words),"[2]; unlabeled competitor, FIG. 24",completely displaced
same,response (in words),swine Type II GHSR,failed to give a response
same,lowest Compound A concentration giving a response,human Type I GHSR,0.1 nM
